Laboratory results from ChEMBL document CHEMBL1124939, “Synthesis of thromboxane receptor antagonists with bicyclo[3.1.0]hexane ring systems” (J Med Chem, 1990).

Columns and labels:
Format in all cases: functional
Oryctolagus cuniculus = species: Oryctolagus cuniculus; test: Tested for the inhibitory activity against aggregation of rabbit platelet-rich plasma (PRP) induced by 500 uM of arachidonic acid.
Rattus norvegicus [1] = species: Rattus norvegicus; test: Tested for the inhibitory activity against aggregation of rat washed platelets (WP) induced by 4 micro g/mL of collagen.
Rattus norvegicus [2] = species: Rattus norvegicus; test: The partial agonistic activity (shape change of rat WP) induced by test compound at 1 uM was calibrated for that of S-145

SMILES	IC50 (Oryctolagus cuniculus) [nM]	IC50 (Rattus norvegicus [1]) [nM]	Relative agonist activity (Rattus norvegicus [2])
O=C([O-])CCC/C=C\C[C@H]1C2CC2C[C@H]1NS(=O)(=O)c1ccccc1.[Na+] (mixture of isomers)	37800	25	33
O=C([O-])CCC/C=C\C[C@H]1C2O[C@H]2C[C@H]1NS(=O)(=O)c1ccccc1.[Na+] (mixture of isomers)	49100	23	26
O=C([O-])CCC/C=C\C[C@H]1C2OC2C[C@@H]1NS(=O)(=O)c1ccccc1.[Na+] (mixture of isomers)	391000	100	0
O=C([O-])CCC/C=C\C[C@H]1[C@@H]2C[C@@H]2C[C@@H]1NS(=O)(=O)c1ccccc1.[Na+] (racemic)	11300	12.5	22
CC1(C)[C@@H]2[C@H](C/C=C\CCCC(=O)[O-])[C@@H](NS(=O)(=O)c3ccccc3)C[C@@H]21.[Na+] (racemic)	44000	4.3	22
O=C([O-])CCC/C=C\C[C@H]1[C@@H]2S[C@@H]2C[C@@H]1NS(=O)(=O)c1ccccc1.[Na+] (racemic)	178000	10	0
CC1(C)[C@H]2[C@H](C/C=C\CCCC(=O)[O-])[C@@H](NS(=O)(=O)c3ccccc3)C[C@H]21.[Na+] (racemic)	432000	4.1	11
O=C([O-])CCC/C=C\C[C@H]1[C@H]2S[C@H]2C[C@@H]1NS(=O)(=O)c1ccccc1.[Na+] (racemic)	11300	2.9	74

Compounds with a lower IC50 (Oryctolagus cuniculus), results first:

IC50 (Oryctolagus cuniculus) [nM]	IC50 (Rattus norvegicus [1]) [nM]	SMILES	Relative agonist activity (Rattus norvegicus [2])
1000	1	O=C(O)CCC/C=C\C[C@H]1[C@@H]2CCC(C2)[C@@H]1NS(=O)(=O)c1ccccc1	100
2600	4	O=C([O-])CCC/C=C\C[C@H]1C2O[C@H]2C[C@@H]1NS(=O)(=O)c1ccccc1.[Na+] (mixture of isomers)	82
5300	8.3	O=C([O-])CCC/C=C\C[C@H]1[C@H]2C[C@H]2C[C@@H]1NS(=O)(=O)c1ccccc1.[Na+] (racemic)	67
